Test results: US6482255B1, “Disazodyes for ink jet printing” (Avecia Limited, priority 1997, dated 2002)

Experiment: Solubility of dye or dye composition in water
Type: physicochemical
Description: The method of Example 1 was repeated except that the condensation reaction with ethanolamine in stage (iv) was stopped after 2.5 hours. The product was a mixture of Dye (A), Dye (B) and Dye (C) in relative proportions 43:35:22 by weight. This dye mixture has a solubility of 10% in water at 20° C. compared to a solubility of 3% for Dye (A) alone under the same conditions.
The ratio of Dyes (A), (B) and (C) in Example 4 may be varied by altering the time and temperature of the ethanolamine condensation step (Example 1, step (iv)). The solubility of a variety of dye compositions in water at 20° C. and pH 9.5 is shown in Table 2 below together with optical density, light fastness (ΔE after 50 hours) and wet-fastness results of prints prepared from these compositions. The prints were prepared by printing an ink formed by dissolving 2.5 parts of each composition in 97.5 parts of a mixture consisting of 88 parts water, 5 parts thiodiglycol, 5 parts 2-pyrrolidone and 2 parts Surfynol 465™ (a non-ionic surfactant) onto the substrate shown in the third column of Table 2 using a Canon 4300 ink jet printer.

solubility in water (water at 20° C.): 3% | Solubility (%) (water at 20° C. and pH 9.5): 3%
SMILES: CNCCCNc1nc(NCCO)nc(Nc2ccc(/N=N/c3c(N)ccc4cc(S(=O)(=O)O)cc(O)c34)c(S(=O)(=O)O)c2)n1 [Dye (1)]
